{"source": "patent US9283243B2", "about": "“CD36 inhibition to control obesity and insulin sensitivity” (CORNELL UNIVERSITY CORNELL CENTER FOR TECHNOLOGY, …, priority 2010, dated 2016)", "key": {"CD36 [1]": {"test_system": "CD36", "settings": "literature, cited from earlier work"}, "CD36 mRNA [2]": {"test_system": "CD36 mRNA", "assay": "CD36 siRNA transfection in C8-D1A cells, CD36 mRNA levels", "type": "cell-based", "settings": "20 nM siRNA, 24h after transfection, N=4, vs negative control", "description": "FIG. 4. Efficacy of CD36 siRNA. 20 nM siRNA either singly or in combination were transfected in C8-D1A cells. CD36 mRNA levels were measured 24h later. N=4. Negative controls were adjusted to the amount of siRNA. **p<0.01, ***p<0.001 vs correponding control.\nCD36 was inhibited using an RNAi technique. 20 nM siRNA either singly or in combination were transfected in C8-D1A cells. CD36 mRNA levels were measured 24h later. N=4. Negative controls were adjusted to the amount of siRNA. **p<0.01, ***p<0.001 vs correponding control."}, "CD36 [3]": {"molecular_target": "T1, CD36 (Homo sapiens, UniProt P16671)", "T1 sequence (P16671 whole entry)": "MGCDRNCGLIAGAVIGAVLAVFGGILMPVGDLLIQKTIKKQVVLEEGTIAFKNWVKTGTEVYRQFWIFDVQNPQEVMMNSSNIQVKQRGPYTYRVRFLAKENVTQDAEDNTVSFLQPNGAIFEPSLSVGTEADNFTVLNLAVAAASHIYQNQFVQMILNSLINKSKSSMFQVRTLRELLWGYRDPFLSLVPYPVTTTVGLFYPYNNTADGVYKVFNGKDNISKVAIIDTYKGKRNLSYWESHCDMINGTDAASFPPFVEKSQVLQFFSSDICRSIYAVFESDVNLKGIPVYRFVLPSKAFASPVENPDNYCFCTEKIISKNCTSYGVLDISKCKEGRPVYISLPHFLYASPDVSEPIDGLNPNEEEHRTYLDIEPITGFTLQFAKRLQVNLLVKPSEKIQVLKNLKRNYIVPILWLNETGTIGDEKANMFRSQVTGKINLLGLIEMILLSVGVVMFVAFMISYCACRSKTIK", "settings": "Xu, Y et al., Anal Biochem 2010; cited from earlier work"}, "CD36 [4]": {"molecular_target": "T1, CD36", "settings": "Demers et al. 2004, cited from earlier work"}, "[5]": {"test_system": "hyperlipidemic ApoE KO (AKO) mice", "assay": "Fasting blood glucose and glucose tolerance test in SAB-treated high fat fed ApoE KO mice", "type": "in vivo, mouse", "text": "(§1) FIG. 1A-1I. In vivo effect of chronic SAB treatment on physiological responses. (A), Body weight changes in ApoE KO mice fed a high fat diet for 8 weeks in vehicle (Veh)- and salvianolic acid (SAB)-treated mice. (B), Pictures were taken at the end of 8 weeks of high fat diet. […] (C), Fasting blood glucose levels. (D), Glucose tolerance test. (E), Area under curve (AUC). (F), CD36 mRNA levels in peritoneal macrophages and spleen from vehicle and SAB treated mice. (G), Measurement of lipid content from blood vessels. Lipid extraction and determination was performed using published methods (Kim et al., 2008). (H), Fold increases of plasma cholesterol levels 4 and 8 weeks after high fat diet. (I), Oil red O staining in the liver of vehicle and SAB treated mice. […] Number in parentheses indicates number of animals for the measurements.\nSAB treatment improves insulin sensitivity. Fasting blood glucose levels were similar in SAB-treated and control mice at zero, four, and eight weeks of treatment (FIG. 1C). However, when mice were challenged with glucose tolerance test (an intraperitoneal injection of […]), blood glucose was cleared much faster in SAB-treated mice (45 minutes after challenge, initial blood glucose spike reduced by 75%) relative to vehicle-treated mice (45 minutes after challenge, initial spike in blood glucose reduced by less than 10%; FIG. 1D)."}, "CD36 [6]": {"molecular_target": "T1, CD36", "assay": "High throughput screen for CD36 antagonists", "text": "Candidate modulator compounds from libraries of synthetic or natural compounds can be screened by methods known in the art (see Chinese patent number ZL200510072269.1, Publication No: CN1868546, and Chinese patent application number 200910147634.9, each hereby incorporated in its entirety by reference). Synthetic compound libraries are commercially available from a number of companies including Maybridge Chemical Co. (Trevillet, Cornwall, UK), Comgenex (Princeton, N.J.), Brandon Associates (Merrimack, N.H.), and Microsource (New Milford, Conn.). Combinatorial libraries are available or can be prepared according to known synthetic techniques. Alternatively, libraries of natural compounds in the form of bacterial, fungal, plant and animal extracts are available from e.g., Pan Laboratories (Bothell, Wash.) or MycoSearch (NC), or are readily producible by methods well known in the art. Additionally, natural and synthetically produced libraries and compounds can be further modified through conventional chemical and biochemical techniques.\nThe use of high throughput screening has allowed the identification of compounds that potently antagonize CD36 in vitro. Following isolation of CD36 antagonists by in vitro testing, experiments can be conducted to test the efficacy in vivo. […]"}, "[7]": {"test_system": "ApoE KO mouse macrophages", "assay": "Foam cell assay / lipid accumulation in primary macrophages incubated with oxLDL", "type": "cell-based", "settings": "48 h, vs oxLDL alone", "description": "FIG. 5. Effects of SAB on lipid accumulation in ApoE KO mouse macrophages. Primary macrophages were seeded in 4 chamber slides and then incubated with 20 μg/ml oxLDL and/or different concentrations of SAB for 48 h. (A-D) Lipids were stained with oil red O and examined by microscopy; representative images are shown. (A), vehicle only; (B), 25 μM SAB treatment; (C), 20 μg/ml oxLDL; (D), 20 μg/ml oxLDL+25 μM SAB. Scale bar, 50 μm; higher magnification micrographs of oil red O stains were shown in upper-right of each picture. (E-F), Quantification for foam cell assay in primary macrophage. White bar, macrophages incubated with vehicle only (no oxLDL or SAB); black bar, incubated with 20 μg/ml oxLDL; grey bars, incubated with 20 μg/ml oxLDL plus 10, 25 or 100 μM SAB (SAB concentration listed below each bar); (E), Degree of lipid accumulation measured as intensity of integrated optical density; (F), Foam cell average area compared to average area of control macrophages incubated with vehicle. Control (vehicle-treated) average individual macrophage cell size/ area was normalized as 1; macrophages treated with oxLDL show increased individual relative cell area resulting from lipid internalization (black bar); SAB treatment (grey bars) reduced lipid internalization and relative cell size/area. n=3-6 cells/group. **,***p<0.01, 0.001 compared with no oxLDL(0).\nSAB reduces lipid accumulation in ApoE KO mouse macrophages. Primary macrophages were isolated from ApoE KO mice and incubated with oxidized low density lipoproteins (oxLDL) and/or different concentrations of SAB for 48 h, then stained for lipid accumulation. […] Thus, CD36 antagonists can prevent accumulation of fat and lipids in cells subject to lipid-rich environments.\nSAB reduces lipid accumulation and foam cell formation. Primary macrophages cultured from ApoE KO mice show a low intensity of optical density (IOD) commensurate with small cellular area (FIGS. 5E and 5F, white bar). […]"}, "[8]": {"test_system": "hyperlipidemic ApoE KO (AKO) mice", "assay": "Chronic SAB treatment of ApoE KO mice fed a high fat diet for 8 weeks: body weight, fat, cholesterol, liver and vessel lipid", "type": "in vivo, mouse", "settings": "for average visceral fat weight: p<0.001", "text": "as §1\nFIG. 2A-2B. Visceral fat weight in high fat fed ApoE KO mice treated with SAB (100 mg/kg) for 8 weeks. 100 mg/kg SAB or vehicle (veh) was injected every other day by subcutaneous injection. n=8-10/group. […] (B), SAB reduced visceral fat weight from average=81 mg/animal to average=32 mg/animal. ***, p<0.001.\nChronic SAB treatment in hyperlipidemic ApoE KO (AKO) mice reduces weight gain and visceral fat accumulation. […] Feeding a high fat diet to the ApoE KO mice for 8 weeks increases plasma cholesterol levels approximately 5 fold (Kim et al., 2008). Six week old male ApoE KO (HL AKO) mice were fed a high fat diet for 8 weeks with or without SAB (100 mg/kg, subcutaneously every other day). […] The difference in weight between the groups was apparent by the 3rd week of treatment (FIG. 1A). […] Thus, SAB reduces body weight and fat accumulation, particularly visceral/abdominal fat accumulation and liver fat deposits, and also lowers plasma cholesterol.\nVisceral fat weight in high fat fed ApoE KO mice treated with either vehicle or SAB (100 mg/kg) for 8 weeks. 100 mg/kg SAB or vehicle (veh) was injected every other day by subcutaneous injection. n=8-10 mice/group, ***, p<0.001. […] SAB reduced visceral fat weight by 60% (32 mg average visceral fat weight in SAB treated mice versus 81 mg average visceral fat weight in controls; FIG. 2B). This provides further evidence that CD36 antagonists can reduce fat accumulation, particularly visceral fat accumulation."}, "CD36 mRNA [9]": {"test_system": "CD36 mRNA", "assay": "CD36 gene expression in peritoneal macrophages and spleen from vehicle and SAB-treated mice", "type": "in vivo, mouse", "settings": "SAB-treated vs vehicle mice", "text": "as §1\nSAB treatment reduces CD36 expression in peritoneal macrophages. Since CD36 is expressed in monocytes and macrophages, CD36 gene expression was compared in peritoneal macrophages and the spleen, a peripheral organ that serves as a reservoir of monocytes, from vehicle and SAB-treated mice. CD36 mRNA levels were reduced in both peritoneal and spleen macrophages of SAB-treated mice (FIG. 1F). […]"}, "[10]": {"settings": "20 μg/ml oxLDL plus 10, 25 or 100 μM SAB"}, "[11]": {"settings": "SAB 100 mg/kg s.c. every other day, high fat diet 8 weeks"}}, "note": "Entries after “also recorded” stand apart in the source; their conditions may differ. Square brackets hold non-standard residues; d marks the D form. Peptide text beside a SMILES is read from it. dTrp(2-Me) = Cc1[nH]c2ccccc2c1C[C@@H](N)C(=O)O", "data": [{"molecule": "Cc1c(C)c2c(c(C)c1O)CC[C@@](C)(CCC[C@H](C)CCC[C@H](C)CCCC(C)C)O2", "note": "[α-tocopherol]", "values": [{"measurement": "uptake of oxLDLs into macrophages", "setting": "CD36 [1]", "value": "can reduce"}, {"measurement": "expression of CD36", "setting": "CD36 [1]; macrophages", "value": "can reduce"}]}, {"molecule": "MSS202775: CD36 siRNA from exon9, SEQ ID NO: 1 and 2 (chain 1 UAGCUUGGCCAAUAGGACAAAUUCC; chain 2 GGAAUUUGUCCUAUUGGCCAAGCUA; chemistry not given here)", "values": [{"measurement": "CD36 gene expression (CD36 mRNA levels)", "setting": "CD36 mRNA [2]", "value": "reduced CD36 gene expression significantly"}, {"measurement": "CD36 gene expression (CD36 mRNA levels)", "setting": "CD36 mRNA [2]; listed as siRNA 75", "value": "most effective"}]}, {"molecule": "O=C(/C=C/c1ccccc1)c1c[nH]c2ccccc12", "note": "[3-cinnamoyl indole]", "values": [{"measurement": "CD36 antagonist identification through high-throughput screening", "setting": "CD36 [3]", "value": "identified"}]}, {"molecule": "MSS202777: CD36 siRNA, exon11, SEQ ID NO: 5 and 6 (chain 1 ACACCAUAAGAUGUACAGUUAUUGG; chain 2 CCAAUAACUGUACAUCUUAUGGUGU; chemistry not given here)", "values": [{"measurement": "CD36 gene expression (CD36 mRNA levels)", "setting": "CD36 mRNA [2]", "value": "reduced CD36 gene expression significantly"}]}, {"molecule": "Cc1[nH]c2ccccc2c1C[C@@H](NC(=O)[C@@H](N)Cc1cnc[nH]1)C(=O)N[C@@H](C)C(=O)N[C@@H](Cc1c[nH]c2ccccc12)C(=O)N[C@H](Cc1ccccc1)C(=O)N[C@@H](CCCCN)C(N)=O", "note": "[hexarelin] (H-H[dTrp(2-Me)]AW[dF]K-NH2)", "values": [{"measurement": "binding to CD36 receptors", "setting": "CD36 [4]", "value": "binds"}, {"measurement": "CD36-mediated uptake of oxLDLs", "setting": "CD36 [4]; binding site competition", "value": "blocks"}]}, {"molecule": "O=C(/C=C/c1ccc(O)c2c1[C@H](C(=O)O[C@H](Cc1ccc(O)c(O)c1)C(=O)O)C(c1ccc(O)c(O)c1)O2)O[C@@H](Cc1ccc(O)c(O)c1)C(=O)O", "note": "(stereo in doubt) [SAB, salvianolic acid B]", "values": [{"measurement": "reduction of initial blood glucose spike in glucose tolerance test", "setting": "[5]; 45 minutes after challenge, intraperitoneal injection of 1.5 mg glucose/kg, vehicle less than 10%", "value": 75, "unit": "%"}, {"measurement": "AUCglucose (glucose area under the curve) in glucose tolerance test", "setting": "[5]; SAB-treated vs vehicle-treated mice", "value": "significant reduction"}, {"measurement": "fasting blood glucose levels vs control mice", "setting": "[5]; zero, four, and eight weeks of treatment", "value": "similar"}, {"measurement": "CD36 antagonist identification in high throughput screen", "setting": "CD36 [6]", "value": "identified as a CD36 antagonist"}, {"measurement": "lipid accumulation (oil red O staining)", "setting": "[7]; 20 μg/ml oxLDL + 25 μM SAB", "value": "significantly reduced lipid accumulation"}, {"measurement": "lipid accumulation as intensity of optical density (IOD)", "setting": "[7]; [10]", "value": "significantly reduced"}, {"measurement": "relative cell area (foam cell average area)", "setting": "[7]; [10]", "value": "significantly reduced"}, {"measurement": "reduction of visceral fat weight", "setting": "[8]; SAB 100 mg/kg s.c. every other day, 8 weeks, vs controls", "value": 60, "unit": "%"}, {"measurement": "average visceral fat weight", "setting": "[8]; SAB 100 mg/kg s.c. every other day, 8 weeks, controls 81 mg", "value": 32, "unit": "mg"}, {"measurement": "average visceral fat weight", "setting": "[8]; SAB 100 mg/kg s.c. every other day, 8 weeks, vehicle 81 mg/animal", "value": 32, "unit": "mg/animal"}, {"measurement": "fat deposition in the liver (Oil red O staining)", "setting": "[8]; [11]", "value": "profoundly reduced; also recorded: significantly reduced"}, {"measurement": "leaner compared to vehicle treated ApoE KO mice", "setting": "[8]; [11]", "value": 17, "unit": "%"}, {"measurement": "abdominal fat accumulation", "setting": "[8]; SAB 100 mg/kg s.c. every other day, high fat diet 8 weeks, physical inspection", "value": "Reduction in abdominal fat was evident; also recorded: substantially reduced; also recorded: either minimal or absent"}, {"measurement": "plasma cholesterol levels", "setting": "[8]; SAB 100 mg/kg s.c. every other day, high fat diet, 4 and 8 weeks", "value": "significantly reduced"}, {"measurement": "rate of weight gain (weekly body weight)", "setting": "[8]; SAB 100 mg/kg subcutaneously every other day, high fat diet 8 weeks, vs vehicle", "value": "significantly reduced"}, {"measurement": "lipid content in the aorta and extended vessels", "setting": "[8]; preliminary analysis, SAB-treated vs vehicle mice", "value": "trend toward lipid content reduction"}, {"measurement": "CD36 mRNA levels in peritoneal macrophages", "setting": "CD36 mRNA [9]", "value": "reduced"}, {"measurement": "CD36 mRNA levels in spleen macrophages", "setting": "CD36 mRNA [9]", "value": "reduced"}]}, {"molecule": "CCCCCc1c2[n+](cc3c(OC)c(OC)ccc13)CCc1cc3c(cc1-2)OCO3", "note": "[13 pentyl berberine]", "values": [{"measurement": "CD36 antagonist identification through high-throughput screening", "setting": "CD36 [3]", "value": "identified"}]}, {"molecule": "MSS202776: CD36 siRNA, exon7, SEQ ID NO: 3 and 4 (chain 1 CUUGUUUGGAACACAGAAGACUUGG; chain 2 CCAAGUCUUCUAUGUUCCAAACAAG; chemistry not given here)", "values": [{"measurement": "CD36 gene expression (CD36 mRNA levels)", "setting": "CD36 mRNA [2]", "value": "reduced CD36 gene expression significantly"}]}]}
